Data: patent publication US20130310256A1, “HERBICIDAL COMPOSITIONS COMPRISING 4-AMINO-3-CHLORO-5-FLUORO-6-(4-CHLORO-2-FLUORO-3-METHOXYPHENYL) PYRIDINE-2-CARBOXYLIC ACID OR A DERIVATIVE THEREOF AND VLCFA AND LIPID SYNTHESIS INHIBITING HERBICIDES” (DOW AGROSCIENCES LLC, priority 2008, published 2013)
Values joined by “and” are separate entries in the source; they are usually repeats but may differ in a detail not shown here. Equal entries are not always repeated.

Columns and labels:
ECHCO = assay: Example I: postemergence foliar-applied weed control, greenhouse; type: in vivo, Echinochloa colona (L.) Link (junglerice); conditions: for Visual Weed Control Obs: 20 DAA
Outline: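 Plants grown in loam/sandy loam–calcareous grit soil (80:20) in greenhouse, 14 hr photoperiod, about 29° C. day/26° C. night, treated postemergence at first to fourth true leaf stage. Foliar spray at 187 L/ha with 1.25% (v/v) crop oil concentrate; Compound A dosed on acid equivalent basis, partners on active ingredient basis.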

FIMMI = assay: Example II: in-water applied weed control, transplanted paddy rice, greenhouse; type: in vivo, Fimbristylis miliacea (L.) Vahl (globe fringerush); conditions: for Visual Weed Control FIMMI Obs: 19 DAA
Protocol: Weed seeds or nutlets of the desired test plant species were planted in puddled soil (mud) prepared by mixing a shredded, non-sterilized mineral soil (50.5 percent silt, 25.5 percent clay, and 24 percent sand, with a pH of about 7.6 and an organic matter content of about 2.9 percent) and water at a 1:1 volumetric ratio. The prepared mud was dispensed in 365 mL aliquots into 16-ounce (oz.) non-perforated plastic pots with a surface area of 86.59 square centimeters (cm^2) leaving a headspace of 3 centimeters (cm) in each pot. Mud was allowed to dry overnight prior to planting or transplanting. Rice seeds were planted in Sun Gro MetroMix® 306 planting mixture, which typically has a pH of 6.0 to 6.8 and an organic matter content of about 30 percent, in plastic plug trays. Seedlings at the second or third leaf stage of growth were transplanted into 840 mL of mud contained in 32-oz. non-perforated plastic pots with a surface area of 86.59 cm^2 4 days prior to herbicide application. The paddy was created by filling the headspace of the pots with 2.5 to 3 cm of water. When required to ensure good germination and healthy plants, a fungicide treatment and/or other chemical or physical treatment was applied. The plants were grown for 4-22 days in a greenhouse with an approximate 14 hr photoperiod which was maintained at about 29′C during the day and 26° C. during the night. Nutrients were added as Osmocote® (19:6:12, N:P:K+ minor nutrients) at 2 g per 16-oz. pot and 4 g per 32-oz. pot. Water was added on a regular basis to maintain the paddy flood, and supplemental lighting was provided with overhead metal halide 1000-Watt lamps as necessary. The plants were employed for testing when they reached the first through fourth true leaf stage.
Treatments consisted of the acid or esters of 4-amino-3-chloro-5-fluoro-6-(4-chloro-2-fluoro-3-methoxy-phenyl)pyridine-2-carboxylic acid (compound A) each formulated as an SC (suspension concentrate) and various herbicidal components alone and in combination. Forms of compound A were applied on an acid equivalent basis.
The herbicidal components were applied on an active ingredient basis and included very long chain fatty acid (VLCFA) synthesis-inhibiting and fatty acid/lipid synthesis-inhibiting herbicides acetochlor (technical grade material), acetochlor+dichlormid formulateded as Topnotch®, pretilachlor (technical grade material), butachlor formulated as Butachlor EC, fentrazamide formulated as Fentrazamide EC, thiobencarb formulated as Bolero® 8EC, cafenstrole formulated as Himeadow® WP or Lapost® Flowable, benfuresate formulated as Full Shot®, anilofos (technical grade material), mefenacet (technical grade material), molinate (technical grade material), and thenylchlor (technical grade material).
Treatment requirements for each compound or herbicidal component were calculated based upon the rates being tested, the concentration of active ingredient or acid equivalent in the formulation, an application volume of 2 mL per component per pot, and an application area of 86.59 cm^2 per pot.
For formulated compounds, a measured amount was placed in an individual 100 or 200 mL glass vial and was dissolved in a volume of 1.25% (v/v) Agri-Dex® crop oil concentrate to obtain application solutions.
For technical grade compounds, a weighed amount was placed in an individual 100 to 200 mL glass vial and was dissolved in a volume of acetone to obtain concentrated stock solutions. […] The concentrated stock solutions obtained were diluted with an equivalent volume of an aqueous mixture containing 2.5% (v/v) crop oil concentrate so that the final application solutions contained 1.25% (v/v) crop oil concentrate.
Applications were made by injecting with a pipetter appropriate amounts of the application solutions, individually and sequentially, into the aqueous layer of the paddy. Control plants were treated in the same manner with the solvent blank. […]

SMILES: CCS(=O)(=O)Oc1ccc2c(c1)C(C)(C)CO2 [Benfuresate, 2,3-dihydro-3,3-dimethyl-5-benzofuranyl ethanesulfonate]
- Visual Weed Control (%) - 22 DAA ECHCO Obs (ECHCO; 75 gai/ha, foliar): 0%
- Visual Weed Control (%) - 22 DAA ECHCO Obs (ECHCO; 150 gai/ha, foliar): 0%
- Visual Weed Control (%) - 22 DAA ECHCO Obs (ECHCO; 300 gai/ha, foliar): 0%

SMILES: CCN(CC)C(=O)n1cnc(S(=O)(=O)c2c(C)cc(C)cc2C)n1 [Cafenstrole, N,N-diethyl-3-[(2,4,6-trimethylphenyl)sulfonyl]-1H-1,2,4-triazole-1-carboxamide]
- Visual Weed Control Obs (ECHCO; 26.25 gai/ha Himeadow WP): 10%
- Visual Weed Control Obs (ECHCO; 52.5 gai/ha Himeadow WP): 10%
- Visual Weed Control Obs (ECHCO; 105 gai/ha Himeadow WP): 10%

SMILES: COc1c(Cl)ccc(-c2nc(C(=O)O)c(Cl)c(N)c2F)c1F [Compound A Acid, 4-amino-3-chloro-6-(4-chloro-2-fluoro-3-methoxyphenyl)-5-fluoropyridine-2-carboxylic acid]
- Visual Weed Control (%) - 20 DAA FIMMI Obs (FIMMI; 8.75 gae/ha): 50%
- Visual Weed Control (%) - 22 DAA ECHCO Obs (ECHCO; 5.3 gae/ha, foliar): 65%
- Visual Weed Control (%) - 22 DAA ECHCO Obs (ECHCO; 10.6 gae/ha, foliar): 65%
- Visual Weed Control Obs (ECHCO; 4.38 gae/ha): 65% and 40% and 70%
- Visual Weed Control Obs (ECHCO; 8.75 gae/ha): 85% and 60%

SMILES: COc1c(Cl)ccc(-c2nc(C(=O)OCc3ccccc3)c(Cl)c(N)c2F)c1F [Compound A Benzyl Ester, benzyl ester of 4-amino-3-chloro-5-fluoro-6-(4-chloro-2-fluoro-3-methoxy-phenyl)pyridine-2-carboxylic acid]
- Visual Weed Control (%) - 20 DAA FIMMI Obs (FIMMI; 4.38 gae/ha): 30%
- Visual Weed Control FIMMI Obs (FIMMI; 8 gae/ha): 0%
- Visual Weed Control (%) - 20 DAA FIMMI Obs (FIMMI; 8.75 gae/ha): 60%
- Visual Weed Control FIMMI Obs (FIMMI; 16 gae/ha): 0%
- Visual Weed Control FIMMI Obs (FIMMI; 32 gae/ha): 85%
- Visual Weed Control (%) - 22 DAA ECHCO Obs (ECHCO; 5.3 gae/ha, foliar): 30%
- Visual Weed Control (%) - 19 DAA ECHCO Obs (ECHCO; 8 gae/ha, foliar): 65%
- Visual Weed Control (%) - 20 DAA ECHCO Obs (ECHCO; 8 gae/ha, foliar): 40%
- Visual Weed Control (%) - 22 DAA ECHCO Obs (ECHCO; 10.6 gae/ha, foliar): 55%
- Visual Weed Control (%) - 20 DAA ECHCO Obs (ECHCO; 16 gae/ha, foliar): 60%
- Visual Weed Control Obs (ECHCO; 4.38 gae/ha): 60%
- Visual Weed Control Obs (ECHCO; 8.75 gae/ha): 85% and 70%
- Visual Weed Control (%) - 20 DAA ECHCO Obs (ECHCO; 32 gae/ha, foliar): 90%

SMILES: CCCOCCN(C(=O)CCl)c1c(CC)cccc1CC [Pretilachlor, 2-chloro-N-(2,6-diethylphenyl)-N-(2-propoxyethyl)acetamide]
- Visual Weed Control (%) - 20 DAA FIMMI Obs (FIMMI; 75 gai/ha): 40%
- Visual Weed Control (%) - 20 DAA FIMMI Obs (FIMMI; 150 gai/ha): 45%
- Visual Weed Control Obs (ECHCO; 37.5 gai/ha): 0%
- Visual Weed Control Obs (ECHCO; 75 gai/ha): 0%
- Visual Weed Control Obs (ECHCO; 150 gai/ha): 0%
